This is an account of results in US6020480A, “Caged NADP and NAD” (The Regents of the University of California, priority 1997, dated 2000).

Assay [1] is described as follows: Rates of photorelease from decay of the aci-nitro anions after photolysis. It counts as physicochemical. How it is done:
The decay of aci-nitro intermediates was monitored at 402 nm or 418 nm with an Osram 50-W tungsten halogen lamp following excitation at 355 nm with a 55 mJ 8-ns pulse. Samples were prepared with 50 mM phosphate buffer, pH 7.0 or pH 6.0. […] Kinetic analysis was made by nonlinear, least-squares computer iteration. The averages of three trials are reported.

Assay [2] addresses T1, IDH, isocitrate dehydrogenase (Escherichia coli) (Escherichia coli, UniProt P08200).
T1 construct: made in house
Kind of assay: Crystallographic analysis of caged compounds soaked into IDH crystals. The class given is binding. The following applies: 250 mM soak. The source says:
IDH was purified and crystallized as described previously by Reeves, H. C., Daumy, G. O., Lin, C. C., and Houston, M. (1972) Biochim. Biophys. Acta 258, 27-39; LaPorte, D. C., Thorsness, P. E., and Koshland, D. E., Jr. (1985) J. Biol. Chem. 260, 10563-10568; Hurley, J. H., Thorsness, P. E., Ramalingam, V., Helmers, N. H., Koshland, D. E., Jr., and Stroud, R. M. (1989) Proc. Natl. Acad. Sci. U.S.A 86, 8635-8639; and Stoddard, B. L., Dean, A., and Koshland, D. E., Jr. (1993) Biochemistry 32, 9310-9316.
The crystals were 0.5 to 1.5 mm along their longest edges, with a shorter third dimension of 0.2 to 0.3 mm; the crystals belong to space group P43 21 2. The unit cell dimensions prior to photolysis and after binding liberated substrate consistently refined to values within 0.5% of the previously published lengths during data processing.
A total of six crystallographic data sets were collected for this study. The structure of the enzyme was determined prior to photolysis after soaking with each compound, both in the presence and absence of bound isocitrate/Mg^+2. The structure of the bound photolysis product was also determined for both caged compounds in the absence of isocitrate/Mg^+2.
For each experiment, a crystal was transferred to 0.5 mL of a stabilization solution (generally 10% higher ammonium sulfate than that used to grow the crystals, buffered at pH 7.0 with HEPES) and soaked overnight in the dark with 250 mM of either 1 or 3. These experiments were performed for each compound in the presence and absence of 50 mM isocitrate and MgSO4. To protect the crystal from oxidative degradation after photolysis by the nitroso photoproducts, β-mercaptoethanol (10 mM) and DTT (10 mM) were also added to the mother liquor. The crystals were mounted under safe-light in quartz capillaries with mother liquor at either end of the capillary. The mount was sealed with mineral oil and paraffin wax. Initial data were collected at room temperature in the dark on an RAXIS imaging plate area detector with a Rigaku RU-200 rotating anode X-ray generator operating at 50 kV, 80 mA. A complete data set was collected from each crystal to 2.5 Å resolution using 20 1.5° rotations at 30 minutes per frame, followed by an additional 10 frames collected with the crystal on a 45° jig (Molecular Structure Corporation) for completeness. The total decay in X-ray intensities during collection of each of these four dark data sets was less than 5% of the initial structure average factor amplitudes.
Crystals that were soaked in caged 1 or 3 in the absence of isocitrate were each irradiated after the dark data collection, using a two minute exposure with a Cole Parmer 9741-50 quartz halogen light source with a 9741-03 high intensity 150 watt bulb and dual fiber optic light pipes and focusing lenses. […]

The target in assay [3] is T1, IDH, isocitrate dehydrogenase (Escherichia coli). Kind of assay: Turnover check by absorbance analysis of dissolved IDH crystals after extensive soaks. It counts as biochemical. The following applies: crystals soaked in presence of bound isocitrate/Mg+2. The text has this: The nicotinamide ring, its ribose sugar, and the first backbone phosphate are all completely disordered. […] The presence of the caging group on the carboxyamide nitrogen sterically prevents hydride transfer. […] After photolysis in the absence of isocitrate, liberated NADP 1002 is still bound to the active site as previously determined for unmodified NADP, as shown in FIG. C. The clear advantage of this compound as a photolytic trigger for time-resolved studies is that it is bound to the enzyme active site prior to photolysis, so that no additional diffusion or binding events are necessary to form the Michaelis complex.

The mark [4] stands for this setting: 10 mM DTT, monitored at 418 nm, double exponential fit.
The mark [5] stands for this setting: absence of bound isocitrate/Mg+2, dark.
Where [6] appears, read: presence of bound isocitrate/Mg+2, dark.

T1 sequence (P08200 whole entry): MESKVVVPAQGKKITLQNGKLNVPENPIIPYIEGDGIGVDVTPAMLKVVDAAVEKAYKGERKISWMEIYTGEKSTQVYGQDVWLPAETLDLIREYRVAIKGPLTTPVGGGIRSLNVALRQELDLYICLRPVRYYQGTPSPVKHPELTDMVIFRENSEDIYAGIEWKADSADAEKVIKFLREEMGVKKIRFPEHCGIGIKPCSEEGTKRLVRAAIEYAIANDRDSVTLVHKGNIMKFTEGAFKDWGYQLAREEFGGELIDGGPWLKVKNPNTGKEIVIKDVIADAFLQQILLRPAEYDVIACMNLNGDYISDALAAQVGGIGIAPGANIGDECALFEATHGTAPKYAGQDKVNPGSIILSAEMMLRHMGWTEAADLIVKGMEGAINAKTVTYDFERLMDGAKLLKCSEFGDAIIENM

With `COc1cc(C(C)OP(=O)(O)O[C@@H]2[C@H](O)[C@@H](COP(=O)(O)OP(=O)([O-])OC[C@H]3O[C@@H]([n+]4cccc(C(N)=O)c4)[C@H](O)[C@@H]3O)O[C@H]2n2cnc3c(N)ncnc32)c([N+](=O)[O-])cc1OC` (stereo partly drawn) [compound 1, P^2' -[1-(4,5-Dimethoxy-2-nitrophenyl)ethyl]nicotinamide adenine dinucleotide phosphate], the “aci-nitro transient decay rate, fast component” value in assay [1] (setting [4]) came to 13000 s⁻¹; in assay [1] (100 mM DTT, 418 nm) it was 18000 s⁻¹. The “aci-nitro transient decay rate, slow component” value turned out to be 93 s⁻¹ in assay [1] (setting [4]) and 480 s⁻¹ in assay [1] (100 mM DTT, 418 nm). The “binding to IDH active site before photolysis” value in assay [2] (setting [5]) and in assay [2] (setting [6]) was “fails to bind” each time.

As for `Nc1ncnc2c1ncn2[C@@H]1O[C@H](COP(=O)(O)OP(=O)([O-])OC[C@H]2O[C@@H]([n+]3cccc(C(=O)NC(C(=O)O)c4ccccc4[N+](=O)[O-])c3)[C@H](O)[C@@H]2O)[C@@H](O)[C@H]1OP(=O)(O)O` (stereo partly drawn) [compound 3, N-(α-Carboxy-2-nitrobenzyl)-nicotinamide adenine dinucleotide phosphate], the “first-order decay rate k of transient (rate of photorelease)” value in assay [1] (50 mM phosphate buffer, pH 7.0) was determined as 30 s⁻¹. Also, the rate of photorelease in assay [1] (sample pH 6) worked out at 42 s⁻¹. Further, the “binding to IDH active site before photolysis” value in assay [2] (setting [5]) is on record as “binds to the enzyme”; in assay [2] (setting [6]), “both backbone phosphates of the caged cofactor are well ordered”. Moreover, the “IDH turnover with caged cofactor before photolysis” value in assay [3] was “turnover does not occur”.

Take “P-[1-(4,5-Dimethoxy-2-nitrophenyl)ethyl] nicotinamide adenine dinucleotide [compound 2]”: the fast decay component in assay [1] (DTT concentration not stated) stood at 17000 s⁻¹.
